From ChEMBL document CHEMBL6178002, “Identification of a RANKL/TNF-α Dual-Inhibitor as a Potential Disease-Modifying Agent for the Treatment of Knee Osteoarthritis” (J Med Chem, 2025)

Legend:
[1] = Inhibition of RANKL/M-CSF-induced osteoclastogenesis in male C57/BL6 mouse bone marrow cells at 1 uM incubated for 5 to 7 days by TRAP staining based analysis relative to control; format: functional; conditions: C57/BL6, Bone marrow cell, time 5-7 day
[2] = Inhibition of RANKL/M-CSF-induced osteoclastogenesis in male C57/BL6 mouse bone marrow cells at 0.1 uM incubated for 5 to 7 days by TRAP staining based analysis relative to control; format: functional; conditions: C57/BL6, Bone marrow cell, time 5-7 day
[3] = Cytotoxicity against bone marrow macrophage cells (unknown origin) assessed as cell viability at 10 uM incubated for 24 hrs by CCK8 assay relative to control; format: toxicity, cell-based; conditions: read-out: Activity
[4] = Anti-osteoclastogenic activity in bone marrow cells (unknown origin) assessed as inhibition of RANKL/M-CSF-induced osteoclast differentiation measured after 5 days by TRAP staining based analysis; format: functional; conditions: Bone marrow cell, 120 h

Row | Structure (SMILES) | inhibition at 1 µM [1] | inhibition at 0.1 µM [2] | viability at 24 h, 10 µM [3] | IC50 [4]
1 | Cc1cccc(C)c1NC(=O)[C@@H]1Cc2c3ccccc3[nH]c2[C@]2(C[C@H](c3ccccc3)C2)N1 | 32.3% | 29.2% | 95.1% | 
2 | O=C(Nc1ccccc1F)[C@@H]1Cc2c3ccccc3[nH]c2[C@]2(C[C@@H](c3ccccc3)C2)N1 | 70.1% | 34.4% | 101% | 
3 | Cc1cc2occ(CN(C)CCN(C)Cc3cn(-c4cccc(C(F)(F)F)c4)c4ccccc34)c(=O)c2cc1C | 56.1% | 18.4% | 3.8% | 1000 nM
4 | CC(C)c1ccccc1NC(=O)[C@@H]1Cc2c3ccccc3[nH]c2[C@]2(C[C@@H](c3ccccc3)C2)N1 | 62.5% | 26.5% | 116% | 
5 | Cc1cccc(C)c1NC(=O)[C@H]1Cc2c([nH]c3ccccc23)C2(CN(c3ccccc3)C2)N1 | 78.3% | 42.9% | 119% | 
6 | Cc1cccc(C)c1NC(=O)[C@@H]1Cc2c([nH]c3ccccc23)C2(CCN(c3ccccc3)CC2)N1 | 30.2% |  | 120% | 
7 | Cc1cccc(C)c1NC(=O)[C@@H]1Cc2c3ccccc3[nH]c2[C@]2(C[C@@H](c3ccccc3)C2)N1 | 55.1% | 36.2% | 105% | 
8 | COc1cccc(OC)c1NC(=O)[C@@H]1Cc2c3ccccc3[nH]c2[C@]2(C[C@H](c3ccccc3)C2)N1 | 35.9% | 11.5% | 95.7% | 
9 | CC(C)c1cccc(C(C)C)c1NC(=O)[C@@H]1Cc2c3ccccc3[nH]c2[C@]2(C[C@@H](c3ccccc3)C2)N1 | 66.9% | 23.6% | 115% | 
10 | Cc1cccc(C)c1NC(=O)[C@@H]1Cc2c([nH]c3ccccc23)[C@](C)(CCc2ccccc2)N1 | 48.3% | 37.3% | 117% | 
11 | Cc1ccccc1NC(=O)[C@@H]1Cc2c3ccccc3[nH]c2[C@]2(C[C@H](c3ccccc3)C2)N1 | 66.5% | 16.5% | 112% | 
12 | Cc1cccc(C)c1NC(=O)[C@@H]1Cc2c([nH]c3ccccc23)[C@@](C)(CCc2ccccc2)N1 | 52.1% | 23.4% | 106% | 
13 | O=C(Nc1ccccn1)[C@@H]1Cc2c3ccccc3[nH]c2[C@]2(C[C@H](c3ccccc3)C2)N1 | 44.2% | 13.1% | 149% | 
14 | CCc1ccc(N2CC3(C2)N[C@H](C(=O)Nc2c(C)cccc2C)Cc2c3[nH]c3ccccc23)cc1 | 35.9% | 25.1% | 101% | 
15 | COc1cccc(OC)c1NC(=O)[C@@H]1Cc2c3ccccc3[nH]c2[C@]2(C[C@@H](c3ccccc3)C2)N1 | 32.3% | 16.5% | 70.2% | 
16 | Cc1cccc(C)c1NC(=O)[C@@H]1Cc2c([nH]c3ccccc23)C2(CN(c3ccc(S(C)(=O)=O)cc3)C2)N1 | 52.1% | 23.4% | 106% | 

Row | Structure (SMILES) | inhibition at 1 µM [1] | inhibition at 0.1 µM [2] | viability at 24 h, 10 µM [3] | IC50 [4]
17 | COc1ccc(N2CC3(C2)N[C@H](C(=O)Nc2c(C)cccc2C)Cc2c3[nH]c3ccccc23)cc1 | 48.6% | 34.6% | 102% | 
18 | Cc1cccc(C)c1NC(=O)[C@H]1Cc2c3ccccc3[nH]c2[C@]2(C[C@H](c3ccccc3)C2)N1 | 45.7% | 12.3% | 105% | 
19 | Cc1cccc(C)c1NC(=O)[C@@H]1Cc2c([nH]c3ccccc23)C2(CN(c3cccnc3)C2)N1 | 52.5% | 11.5% | 107% | 
20 | CN(C)c1ccccc1NC(=O)[C@@H]1Cc2c3ccccc3[nH]c2[C@]2(C[C@@H](c3ccccc3)C2)N1 | 89.9% | 32.2% | 109% | 
21 | Cc1cccc(C)c1NC(=O)[C@@H]1Cc2c([nH]c3ccccc23)C2(CN(c3ccc(F)cc3)C2)N1 | 57.4% | 23.1% | 119% | 
22 | Cc1cccnc1NC(=O)[C@@H]1Cc2c3ccccc3[nH]c2[C@]2(C[C@@H](c3ccccc3)C2)N1 | 58.3% | 35.9% | 160% | 
23 | CN(C)c1ccccc1NC(=O)[C@@H]1Cc2c3ccccc3[nH]c2[C@]2(C[C@H](c3ccccc3)C2)N1 | 58.4% | 10.2% | 66.3% | 
24 | Cc1cccc(C)c1NC(=O)[C@@H]1Cc2c([nH]c3ccccc23)C2(CN(c3ccc(C#N)cc3)C2)N1 | 48.3% | 37.3% | 105% | 
25 | Cc1cccc(C)c1NC(=O)[C@@H]1Cc2c([nH]c3ccccc23)C2(CN(c3ccc(C(F)(F)F)cc3)C2)N1 | 43.7% | 15.4% | 117% | 
26 | O=C(Nc1ccccn1)[C@@H]1Cc2c3ccccc3[nH]c2[C@]2(C[C@@H](c3ccccc3)C2)N1 | 41.2% | 16.1% | 127% | 
27 | Cc1ccccc1NC(=O)[C@@H]1Cc2c3ccccc3[nH]c2[C@]2(C[C@@H](c3ccccc3)C2)N1 | 54.4% | 23% | 102% | 
28 | O=C(Nc1ccccc1F)[C@@H]1Cc2c3ccccc3[nH]c2[C@]2(C[C@H](c3ccccc3)C2)N1 | 40.7% | 17.6% | 63.6% | 
29 | Cc1cccnc1NC(=O)[C@@H]1Cc2c3ccccc3[nH]c2[C@]2(C[C@H](c3ccccc3)C2)N1 | 49.8% | 16.7% | 159% | 
30 | CC(C)c1ccccc1NC(=O)[C@@H]1Cc2c3ccccc3[nH]c2[C@]2(C[C@H](c3ccccc3)C2)N1 | 37.5% | 12.7% | 103% | 
31 | Cc1cccc(C)c1NC(=O)[C@H]1Cc2c3ccccc3[nH]c2[C@]2(C[C@@H](c3ccccc3)C2)N1 | 23.8% |  | 116% | 
32 | CC(C)c1cccc(C(C)C)c1NC(=O)[C@@H]1Cc2c3ccccc3[nH]c2[C@]2(C[C@H](c3ccccc3)C2)N1 | 62% | 20.7% | 141% | 
